Laboratory results reported in patent US9486471B2, “Combination therapy for the treatment of cancer” (McMaster University, priority 2012, dated 2016).

Columns and labels:
[1] = system: normal HSCs and progenitors; experiment: Methocellulose colony formation of normal HSCs (Example 2); format: cell-based, human; conditions: 10 μM
Method: Normal HSCs and progenitors were sourced from either mobilized peripheral blood or umbilical cord blood of health patients. Primary AML cells were taken from patients diagnosed with AML. Both normal HSCs and primary AML cells were cultured under standard in vitro methocellulose assay conditions (see http://www.stemcell.com/en/Products/All-Products/MethoCult-H4434-Classic.aspx as well as Clinton Campbell et al. The human stem cell hierarchy is defined by a functional dependence on Mcl-1 for self-renewal capacity. Blood 116 (9) 1433-1442 (Jun. 4, 2010), hereby incorporated by reference) for at least 14 days before the number of colonies were recorded.

[2] = system: AML patient blast cells; experiment: Methylcellulose colony-forming assay, AML patient blast-CFU; format: cell-based, human
Method: (§1) AML/HPSC Cell Culture. AML cell lines, namely, OCI-AML2 (M4), OCI-AML3 (M4), HL-60 (M2) and MV-4-11(M5) were cultured in RPMI (Gibco) supplemented with 5% heated-inactivated FBS (HyClone). For DR agonist studies with R(+)-7-Hydroxy-DPAT hydrobromide (Sigma), serum-free conditions were employed instead due to the prevalence of dopamine in FBS (Little et al., 2002). AML patient blasts were cultured in IMDM supplemented with 5% heated inactivated FBS (HyClone), 5 ng/mL IL3 (R&D systems), 5×10^−5 M β-mercaptoethanol (Sigma) and BIT (StemCell Technologies). HSC media contained IMDM supplemented with 1% BSA (Sigma), 100 ng/mL SCF (R&D systems), 100 ng/mL Flt-3L (R&D systems) and 20 ng/mL TPO (R&D systems). Patient HSPC and AML samples were treated with compound or DMSO-vehicle (0.1%) for 24 h prior to CFU plating or xenotransplantation studies.
(§2) Methylcellulose Colony-Forming Assay. AML patient or CB lin− cells were cultured 24 hours in the presence of compound or DMSO-vehicle (0.1%) control. AML cells were plated at 50 000 cells/mL in Methocult GF H4434 (Stem Cell Technologies). CB lin− cells were plated at 1000 cells/mL in Methocult GF H4434 (Stem Cell Technologies). Colonies were scored after 14 days of culture using standard morphological criteria.

[3] = system: AML cell lines HL-60, OCI-AML2 and OCI-AML3
Method: All three lines are leukemic cell lines. HL-60 was derived from promyelocytic AML whereas MV 4-11 and OCI-AML3 are representative of AML. Each compound was incubated with the cells for 72 h. The control was DMSO (ie the vehicle used for the compound) for 72 h. Each condition had three replicates.
A series of dopamine receptor agonists, D3-antagonists, DR1 & 5-antagonists and multi-receptor antagonists were tested for cytotoxicity against three AML cell lines HL-60, OCI-AML2 and OCI-AML3. Testing was performed as set out in Example 1.

[4] = system: patient AML cells (CD11b); experiment: Frequency of CD11b granulocytic cells in cultured patient AML cells; format: cell-based, human; conditions: 10 μM, up to 96 hours
[5] = system: hematopoietic stem and progenitor cells (HSPC, CB lin-); experiment: Methylcellulose colony-forming assay, HSPC (CB lin-); conditions: 24 h treatment, colonies scored after 14 days
Method: as §1, §2

[6] = system: differentiation-associated genes in neoplastic hPSCs; experiment: TaqMan Low-Density Array-qPCR of differentiation genes; format: cell-based, human; conditions: treated neoplastic hPSCs; >2 fold increase
Method: Gene Expression Analysis. Cells in specific conditions were collected and RNA was extracted by using RNeasy kit (Qiagen), complementary DNA (cDNA) generation by using SuperScript III® cDNA synthesis kit (Invitrogen), pre-amplification and TaqMan® array reaction (Applied Biosystems) were performed according to manufacturer's instructions. The gene expression profile for each treated cell population was analyzed using TaqMan® Stem Cell Pluripotency Array Card on ViiA 7 Real-Time PCR System (Applied Biosystems). Each reaction sample was dispensed into loading wells on the array card and centrifuged twice at 336×g for 1 min each time, sealed, and placed in the thermal cycler. The following cycling conditions were used for all array card applications: 45° C. for 10 min, 94° C. for 10 min, and 40 cycles of 94° C. for 30 s followed by 60° C. for 1 min. Array data were normalized to 18S RNA and GAPDH and comparisons were performed using data analysis 2.0 software (Applied Biosystems).

[7] = system: neoplastic hPSCs (v1H9-Oct4-GFP); experiment: Flow cytometry of Oct4 in neoplastic hPSCs; format: cell-based, human
[8] = system: AML LSCs (CD45+CD33+ blast engraftment); experiment: Xenotransplantation of compound-treated AML cells into NSG mice; format: in vivo
Method: Xenotransplantation Assays. NOD.Cg-Prkdc^scid II2rg^tm1Wjl/SzJ adult mice (NSG) were sub-lethally irradiated with 315 rads 24 hours prior transplantation. 0.8-1.0×10^7 AML MNCs or 1.5-1.8×10^5 CB lin-hematopoietic cells treated with compound or DMSO-vehicle for 24 h were injected via tail vein (IV). After 6-10 weeks, animals were culled, and the BM and spleen were analyzed for the presence of human cells by flow cytometry (LSRII, BD) and data was analyzed using FlowJo software (Tree Star Inc). For secondary HSPC transplants, equal number of engrafted human cells from CB lin− transplants were injected IV in adult irradiated NSG mice as described for primary transplants.
To delineate whether the inhibition of AML-blasts detected in vitro was due to the compounds affecting the neoplastic stem cell compartment, xenotransplantation studies (Dick, 2008) that functionally define LSCs and hematopoietic stem cells (HSCs) were conducted (FIG. 12).

[9] = system: CD14+ cells in primary AML; experiment: Flow cytometry frequency of CD14+ cells in primary AML; format: cell-based, human; conditions: 10 μM, 72 h; control 100%
[10] = system: HL-60, MV4-11 and OCI-AML3 leukemic cell lines; experiment: Normalized cell number of leukemic cell lines after 72 h incubation (Examples 1, 3); format: cell-based, human
Method: All three lines are leukemic cell lines. […] Each condition had three replicates.
The dopamine receptor antagonist and phenothiazine-related compound chlorpromazine was also investigated for effects on the AML cell lines HL-60, MV4-11 and OCI-AML3. Testing was performed as set out in Example 1.

`CSc1ccc2c(c1)N(CCC1CCCCN1C)c1ccccc1S2` (racemic) [thioridazine, 10-{2-[(RS)-1-Methylpiperidin-2-yl]ethyl}-2-methylsulfanylphenothiazine] was tested, and the “cell pellets of CFU colonies” value ([1]; HSCs) was “pelleted cells are still visible”, the “colony forming potential of normal HSCs” value ([1]; DMSO control about 100, at least 14 days) was “about 66 total colonies” and the “blast-CFU generation, DR+ subfraction of patient AML” value ([2]; 10 μM, 24 h) was “reduction”. The “blast-CFU generation, DR- subfraction of patient AML” value ([2]; 10 μM, 24 h) was “no reduction”, the AML proliferation/clonogenic capacity ([2]; 24 h treatment, colonies scored after 14 days) was “reduction” and the “AML-blast CFU formation” value ([2]; dose not stated in the sentence (0.1, 1, 10 μM tested)) was “reduced”. The “cytotoxicity of AML cell lines” value [3] was “significant effect”, the cell count ([3]; 72 h, relative to control) was “eradicate the AML cell lines” and the “frequency of granulocytic (CD11b) AML-blast cells” value [4] was “marked increase”. For the same compound, the HSPC multilineage differentiation [5] was “retaining”, the upregulated differentiation-associated genes [6] was 21 of 50 and the cell number [7] was “reductions”. The “levels of Oct4” value [7] was “reductions”, the “leukemic disease-initiating AML LSC capacity” value ([8]; 10 μM, 24 h ex vivo treatment) was “significantly reduce” and the “level of leukemic engraftment of secondary transplant recipients” value ([8]; secondary recipients, in the absence of thioridazine) was “no difference”. For the same compound, the “normalized frequency of CD14+ cells” value [9] was 20%, the normalized cell number ([10]; 0.1 μM) was “little effect” and the normalized cell number ([10]; 1 μM) was “little effect”. For the same compound, the “normalized cell number / toxicity” value ([10]; 10 μM) was “reduced to almost zero”.
